Laboratory results as given in ChEMBL document CHEMBL1201862, “PubChem BioAssay data set” (2004).
Calls of active or inactive are those of the source. No stated cut-off is given here; in the data, actives have a measured IC50 and inactives only a lower limit.

Target: Envelope glycoprotein gp160 (Human immunodeficiency virus 1, UniProt Q6QLK5)
Test: inhibitors of HIV fusion peptide binding, primary screen, biochemical, uHTS, fluorescence dequenching (AID 1986)

Envelope glycoprotein gp160, sequence (Q6QLK5 whole entry, the tested form may be a part): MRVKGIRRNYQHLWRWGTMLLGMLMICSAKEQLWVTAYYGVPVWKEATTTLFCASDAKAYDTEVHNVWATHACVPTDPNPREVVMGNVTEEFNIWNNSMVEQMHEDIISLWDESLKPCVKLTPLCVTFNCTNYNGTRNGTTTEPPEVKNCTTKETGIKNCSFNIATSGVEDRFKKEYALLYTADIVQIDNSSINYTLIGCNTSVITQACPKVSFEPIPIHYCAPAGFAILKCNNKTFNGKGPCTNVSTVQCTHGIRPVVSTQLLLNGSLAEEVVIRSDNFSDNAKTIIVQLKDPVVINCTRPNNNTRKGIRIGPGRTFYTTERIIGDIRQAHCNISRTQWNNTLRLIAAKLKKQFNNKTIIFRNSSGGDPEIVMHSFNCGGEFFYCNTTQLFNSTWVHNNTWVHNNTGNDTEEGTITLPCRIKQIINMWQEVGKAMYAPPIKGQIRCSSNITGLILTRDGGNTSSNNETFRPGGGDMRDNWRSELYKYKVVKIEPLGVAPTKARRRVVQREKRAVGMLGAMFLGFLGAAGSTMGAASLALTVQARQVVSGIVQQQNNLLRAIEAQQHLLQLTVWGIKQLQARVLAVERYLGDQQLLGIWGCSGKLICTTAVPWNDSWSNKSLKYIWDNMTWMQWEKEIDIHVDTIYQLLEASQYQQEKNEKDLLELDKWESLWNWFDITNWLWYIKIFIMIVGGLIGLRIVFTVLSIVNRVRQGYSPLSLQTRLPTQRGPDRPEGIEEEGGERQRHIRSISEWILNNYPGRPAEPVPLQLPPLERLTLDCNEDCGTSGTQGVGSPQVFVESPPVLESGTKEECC

| Structure (SMILES) | IC50 |
| --- | --- |
| COc1cc(/C=C2\C(=N)N3N=C(S(C)(=O)=O)SC3=NC2=O)ccc1OC(=O)c1ccco1 | 21.9 µM (active) |
| O=C(O)COc1ccccc1/C=N/NC(=O)CSc1nnc(SCc2cccc3ccccc23)s1 | 26.6 µM (active) |
